# Experimental data from patent publication US9233968B1, “Kinase inhibitors” (Allergan, Inc., priority 2014, dated 2016).
# Key:
# VEGFR2 = VEGFR2 (Homo sapiens (Human), UniProt P35968); test: VEGFR2 Cellular Assay (FLIPR, VEGF induced intracellular calcium in HUVEC); type: cell-based; conditions: VEGF165 stimulation 10 ng/mL, read-out: Receptor VEGFR2 IC50
# Protocol: (§1) VEGFR2 Cellular Assay Automated FLIPR (Fluorometric Imaging Plate Reader) technology was used to screen for inhibitors of VEGF induced increases in intracellular calcium levels in fluorescent dye loaded endothelial cells. HUVEC (human umbilical vein endothelial cells) (Clonetics) were seeded in 384-well fibronectin coated black-walled plates overnight at 37° C./5% CO2. Cells were loaded with calcium indicator Fluo-4 for 45 minutes at 37° C. Cells were washed 2 times (Elx405, Biotek Instruments) to remove extracellular dye. For screening, cells were pre-incubated with test agents for 30 minutes, at a single concentration (10 μM) or at concentrations ranging from 0.0001 to 10.0 μM followed by VEGF165 stimulation (10 ng/mL). […] Data were generated by determining max-min fluorescence levels for unstimulated, stimulated, and drug treated samples. IC50 values for test compounds were calculated from % inhibition of VEGF stimulated responses in the absence of inhibitor.
# [1] = target: PDGFRβ (cytoplasmic domain PDGFR-b protein) (Homo sapiens (Human), UniProt P09619); test: PDGFRβ Kinase Assay; type: biochemical; conditions: 36 μM ATP, poly-Glu-Tyr substrate; read-out: Enzyme PDGFRβ IC50
# Protocol: Biochemical PDGFRβ kinase assays were performed in 96 well microtiter plates that were coated overnight with 75 μg of poly-Glu-Tyr (4:1) in 10 mM Phosphate Buffered Saline (PBS), pH 7.4. The coated plates were washed with 2 mls per well PBS+0.05% Tween-20 (PBS-T), blocked by incubation with PBS containing 1% BSA, then washed with 2 mls per well PBS-T prior to starting the reaction. […] Reactions were initiated by the addition 20 μl per well of kinase buffer containing 200-300 ng purified cytoplasmic domain PDGFR-b protein (Millipore). Following a 60 minute incubation at 30° C., the reactions were washed 2 mls per well PBS-T. 100 μl of a monoclonal anti-phosphotyrosine antibody-peroxidase conjugate diluted 1:10,000 in PBS-T was added to the wells for 30 minutes. Following a 2 mls per well wash with PBS-Tween-20, 100 μl of O-Phenylenediamine Dihydrochloride in phosphate-citrate buffer, containing urea hydrogen peroxide, was added to the wells for 7-10 minutes as a colorimetric substrate for the peroxidase. […] IC50 values for compound inhibition were calculated directly from graphs of optical density (arbitrary units) versus compound concentration following subtraction of blank values.
# PDGFRβ = PDGFRβ (Homo sapiens (Human), UniProt P09619); test: PDGFRβ Cellular Assay (FLIPR, PDGF-induced intracellular calcium in NHDF-Ad); type: cell-based; conditions: PDGF-BB stimulation 30 ng/mL, read-out: Receptor PDGFRβ IC50
# Protocol: as §1, with “Automated” for “VEGFR2 Cellular Assay Automated”, “of PDGF-induced” for “of VEGF induced”, “cells. NHDF-Ad (Normal Human Dermal Fibroblasts, Adult; Lonza)” for “cells. HUVEC (human umbilical vein endothelial cells) (Clonetics)”, “by PDGF-BB” for “by VEGF165”, “stimulation (30” for “stimulation (10”, “of PDGF-BB” for “of VEGF”
# [2] = target: VEGFR2 (cytoplasmic domain KDR protein) (Homo sapiens (Human), UniProt P35968); test: VEGFR2 Kinase Assay (biochemical KDR kinase assay); conditions: 2.7 μM ATP, poly-Glu-Tyr substrate; read-out: Enzyme VEGFR2 IC50
# Protocol: Biochemical KDR kinase assays were performed in 96 well microtiter plates that were coated overnight with 75 μg/well of poly-Glu-Tyr (4:1) in 10 mM Phosphate Buffered Saline (PBS), pH 7.4. The coated plates were washed with 2 mls per well PBS+0.05% Tween-20 (PBS-T), blocked by incubation with PBS containing 1% BSA, then washed with 2 mls per well PBS-T prior to starting the reaction. Reactions were carried out in 100 μL reaction volumes containing 2.7 μM ATP in kinase buffer (50 mM Hepes buffer pH 7.4, 20 mM MgCl2, 0.1 mM MnCl2 and 0.2 mM Na3VO4). […] Reactions were initiated by the addition 20 μl per well of kinase buffer containing 200-300 ng purified cytoplasmic domain KDR protein (BPS Bioscience, San Diego, Calif.). Following a 15 minute incubation at 30° C., the reactions were washed 2 mls per well PBS-T. 100 μl of a monoclonal anti-phosphotyrosine antibody-peroxidase conjugate diluted 1:10,000 in PBS-T was added to the wells for 30 minutes. Following a 2 mls per well wash with PBS-Tween-20, 100 μl of O-Phenylenediamine Dihydrochloride in phosphate-citrate buffer, containing urea hydrogen peroxide, was added to the wells for 7-10 minutes as a colorimetric substrate for the peroxidase. The reaction was terminated by the addition of 100 μl of 2.5N H2SO4 to each well and read using a microplate ELISA reader set at 492 nm. IC50 values for compound inhibition were calculated directly from graphs of optical density (arbitrary units) versus compound concentration following subtraction of blank values.
# PDGFRβ (cytoplasmic domain PDGFR-b protein), sequence (P09619 554-1106): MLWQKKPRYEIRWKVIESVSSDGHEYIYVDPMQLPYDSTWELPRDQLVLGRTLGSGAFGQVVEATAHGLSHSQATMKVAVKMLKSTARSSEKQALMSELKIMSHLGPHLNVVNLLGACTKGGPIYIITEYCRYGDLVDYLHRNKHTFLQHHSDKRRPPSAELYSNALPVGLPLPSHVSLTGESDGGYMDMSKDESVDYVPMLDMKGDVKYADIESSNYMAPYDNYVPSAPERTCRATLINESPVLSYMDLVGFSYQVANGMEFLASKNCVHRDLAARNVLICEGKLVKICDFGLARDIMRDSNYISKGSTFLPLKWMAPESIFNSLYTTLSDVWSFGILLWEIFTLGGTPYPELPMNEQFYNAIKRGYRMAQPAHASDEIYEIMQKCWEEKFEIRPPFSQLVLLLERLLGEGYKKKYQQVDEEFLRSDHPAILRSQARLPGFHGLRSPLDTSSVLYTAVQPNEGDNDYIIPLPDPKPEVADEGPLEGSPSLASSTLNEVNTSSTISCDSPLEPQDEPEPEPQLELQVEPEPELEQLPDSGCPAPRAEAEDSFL
# VEGFR2, sequence (P35968 20-1356): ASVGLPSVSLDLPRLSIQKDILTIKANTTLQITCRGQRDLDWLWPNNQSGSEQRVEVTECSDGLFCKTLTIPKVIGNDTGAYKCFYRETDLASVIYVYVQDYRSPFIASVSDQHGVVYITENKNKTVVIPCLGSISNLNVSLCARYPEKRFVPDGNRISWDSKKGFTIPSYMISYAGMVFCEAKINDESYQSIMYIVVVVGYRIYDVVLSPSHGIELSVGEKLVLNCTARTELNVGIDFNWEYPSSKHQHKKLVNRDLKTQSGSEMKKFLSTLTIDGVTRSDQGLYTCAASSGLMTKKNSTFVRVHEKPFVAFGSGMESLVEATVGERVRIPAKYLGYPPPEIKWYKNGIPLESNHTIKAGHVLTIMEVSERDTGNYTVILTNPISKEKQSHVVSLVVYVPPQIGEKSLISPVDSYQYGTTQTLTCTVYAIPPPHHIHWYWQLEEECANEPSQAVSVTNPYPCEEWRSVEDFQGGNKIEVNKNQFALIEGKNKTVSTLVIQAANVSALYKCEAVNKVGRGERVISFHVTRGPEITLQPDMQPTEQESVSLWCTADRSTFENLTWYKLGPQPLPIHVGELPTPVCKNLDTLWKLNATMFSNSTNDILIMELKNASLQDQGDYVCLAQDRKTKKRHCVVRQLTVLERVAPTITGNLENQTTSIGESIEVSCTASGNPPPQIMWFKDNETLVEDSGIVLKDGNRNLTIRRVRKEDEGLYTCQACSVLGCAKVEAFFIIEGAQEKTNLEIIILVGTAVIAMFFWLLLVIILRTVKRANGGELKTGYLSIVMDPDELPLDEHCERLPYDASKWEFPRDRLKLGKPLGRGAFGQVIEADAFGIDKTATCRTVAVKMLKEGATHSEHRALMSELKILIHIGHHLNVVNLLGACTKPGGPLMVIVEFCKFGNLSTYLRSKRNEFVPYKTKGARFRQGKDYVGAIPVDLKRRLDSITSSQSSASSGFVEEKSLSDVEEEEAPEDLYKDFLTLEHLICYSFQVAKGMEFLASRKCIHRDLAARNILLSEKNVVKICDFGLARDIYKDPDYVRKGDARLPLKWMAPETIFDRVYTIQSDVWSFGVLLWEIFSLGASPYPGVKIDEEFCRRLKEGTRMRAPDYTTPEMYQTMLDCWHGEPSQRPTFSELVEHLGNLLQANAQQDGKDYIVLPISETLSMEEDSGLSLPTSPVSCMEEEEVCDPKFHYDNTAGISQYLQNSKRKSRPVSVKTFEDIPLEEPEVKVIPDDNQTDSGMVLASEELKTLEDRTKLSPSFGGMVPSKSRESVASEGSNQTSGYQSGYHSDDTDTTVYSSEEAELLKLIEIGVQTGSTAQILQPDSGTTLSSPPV
# PDGFRβ, sequence (P09619 33-1106): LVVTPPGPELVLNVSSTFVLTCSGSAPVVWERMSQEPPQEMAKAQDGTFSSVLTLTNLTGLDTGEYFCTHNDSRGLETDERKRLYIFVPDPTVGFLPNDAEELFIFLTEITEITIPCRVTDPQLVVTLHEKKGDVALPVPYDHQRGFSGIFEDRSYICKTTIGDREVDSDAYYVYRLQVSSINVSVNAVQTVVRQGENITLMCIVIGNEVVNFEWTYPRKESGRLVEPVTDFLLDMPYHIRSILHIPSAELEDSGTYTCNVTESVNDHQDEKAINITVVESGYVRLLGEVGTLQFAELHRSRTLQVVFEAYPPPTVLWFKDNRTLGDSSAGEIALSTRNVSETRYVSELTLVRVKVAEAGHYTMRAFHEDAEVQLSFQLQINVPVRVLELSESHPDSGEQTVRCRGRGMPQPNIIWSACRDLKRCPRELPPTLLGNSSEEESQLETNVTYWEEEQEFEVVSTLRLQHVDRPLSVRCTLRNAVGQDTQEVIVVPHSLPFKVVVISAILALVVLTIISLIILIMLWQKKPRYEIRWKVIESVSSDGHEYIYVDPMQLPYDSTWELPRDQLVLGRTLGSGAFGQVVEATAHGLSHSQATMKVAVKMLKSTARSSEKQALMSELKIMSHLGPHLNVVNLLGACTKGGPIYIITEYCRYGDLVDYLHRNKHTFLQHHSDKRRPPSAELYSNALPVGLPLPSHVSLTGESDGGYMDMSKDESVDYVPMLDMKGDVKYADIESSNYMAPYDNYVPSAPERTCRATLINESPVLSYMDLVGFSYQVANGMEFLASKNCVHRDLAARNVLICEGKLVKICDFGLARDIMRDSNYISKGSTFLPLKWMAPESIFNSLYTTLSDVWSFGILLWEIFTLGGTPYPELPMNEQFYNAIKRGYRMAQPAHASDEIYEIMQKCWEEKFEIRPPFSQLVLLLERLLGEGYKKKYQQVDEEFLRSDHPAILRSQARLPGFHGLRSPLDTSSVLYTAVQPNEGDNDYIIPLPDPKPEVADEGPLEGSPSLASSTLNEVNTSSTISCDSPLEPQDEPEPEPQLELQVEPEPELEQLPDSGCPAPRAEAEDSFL
# VEGFR2 (cytoplasmic domain KDR protein), sequence (P35968 786-1356): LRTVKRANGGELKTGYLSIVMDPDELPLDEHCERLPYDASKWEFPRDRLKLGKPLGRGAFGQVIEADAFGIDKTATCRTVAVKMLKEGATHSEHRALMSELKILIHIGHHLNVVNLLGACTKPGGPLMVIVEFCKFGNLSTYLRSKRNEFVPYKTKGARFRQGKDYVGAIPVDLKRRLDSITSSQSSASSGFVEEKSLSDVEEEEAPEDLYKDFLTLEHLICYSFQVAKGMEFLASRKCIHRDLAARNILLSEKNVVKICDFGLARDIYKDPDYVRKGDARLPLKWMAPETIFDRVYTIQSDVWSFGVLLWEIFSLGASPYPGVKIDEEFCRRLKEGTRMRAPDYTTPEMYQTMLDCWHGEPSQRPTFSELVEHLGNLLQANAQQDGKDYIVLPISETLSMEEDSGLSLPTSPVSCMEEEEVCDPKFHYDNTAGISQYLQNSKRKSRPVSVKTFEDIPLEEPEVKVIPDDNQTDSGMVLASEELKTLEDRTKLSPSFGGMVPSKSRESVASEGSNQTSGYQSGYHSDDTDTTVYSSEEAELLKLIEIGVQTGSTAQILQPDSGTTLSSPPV
Compound,IC50 (VEGFR2) [nM],IC50 [1] [nM],IC50 (PDGFRβ) [nM],IC50 [2] [nM]
"O=C(Nc1cccc(C#Cc2ccc3nccn3n2)c1)c1ccccc1 [Example 27, N-[3-(imidazo[1,2-b]pyridazin-6-ylethynyl)phenyl]benzamide]",> 10000,27,17800,2360
"Cc1ccc(F)c(C(=O)Nc2cccc(C#Cc3ccc4nccn4n3)c2)c1 [Example 26, 2-fluoro-N-[3-(imidazo[1,2-b]pyridazin-6-ylethynyl)phenyl]-5-methylbenzamide]",3040,6080,> 10000,1620
"O=C(Nc1ccc(C#Cc2ccc3nc(NC(=O)Nc4cc(C(F)(F)F)ccc4F)cn3n2)cc1)Nc1cc(C(F)(F)F)ccc1F [Example 10, 1-[2-fluoro-5-(trifluoromethyl)phenyl]-3-[4-({2-[({[2-fluoro-5-(trifluoromethyl)phenyl]amino}carbonyl)amino]imidazo[1,2-b]pyridazin-6-yl}ethynyl)phenyl]urea]",> 10000,> 10000,> 10000,1430
"O=C(Nc1ccc(C#Cc2ccc3nccn3n2)cc1)Nc1cccc(C(F)(F)F)c1 [Example 2, 1-[4-(imidazo[1,2-b]pyridazin-6-ylethynyl)phenyl]-3-[3-(trifluoromethyl)phenyl]urea]",962,32,457,47
"Nc1ccc(C#Cc2ccc3nc(NC(=O)Nc4ccc(F)c(Cl)c4)cn3n2)cc1 [Example 14, 1-{6-[(4-aminophenyl)ethynyl]imidazo[1,2-b]pyridazin-2-yl}-3-(3-chloro-4-fluorophenyl)urea]",> 10000,6570,10500,1690

# Continued by falling IC50 (VEGFR2), values first:
IC50 (VEGFR2) [nM],IC50 [1] [nM],IC50 (PDGFRβ) [nM],IC50 [2] [nM],Compound
132,80,70,23,"Cc1cccc(NC(=O)Nc2ccc(C#Cc3ccc4nccn4n3)cc2)c1 [Example 3, 1-[4-(imidazo[1,2-b]pyridazin-6-ylethynyl)phenyl]-3-(3-methylphenyl)urea]"
51,34,227,20,"Cc1cccc(NC(=O)Nc2ccc(C#Cc3ccc4nc(N)cn4n3)cc2)c1 [Example 1, 1-{4-[(2-aminoimidazo[1,2-b]pyridazin-6-yl)ethynyl]phenyl}-3-(3-methylphenyl)urea]"
